According to patent US8039585B2, “Therapeutic administration of the scrambled anti-angiogenic peptide C16Y” (The United States of America as represented by the …, priority 2004, dated 2011):
Ends that are not written are not given here.

How the values were obtained:
HUVECs = assay: Endothelial cell tube-forming assay on Matrigel; type: cell-based, human; set-up: key to Disruption of tube formation / Activity (tube formation, truncated C16Y peptides): +: tubes slightly affected; ++: tubes moderately affected; +++: tubes disrupted; ++++: tubes completely disrupted; −: tubes resemble control; settings: for Activity (tube formation, truncated C16Y peptides): truncated versions of C16Y, concentration not given; for Disruption of tube formation: 16 hours
Experimental: FIG. 3: Disruption of endothelial cell tube formation by C16Y peptide. 48-well plates were coated with 200 μl of Matrigel per well. Each well was treated with RPMI containing 24,000 human umbilical vein endothelial cells (HUVECS) and 100 mg/L endothelial cell growth factor in the presence of 10-75 μg/ml of C16 or scrambled C16 peptide for 16 hours. Control wells contained medium only. Cells were fixed and stained, and tube formation was scored by a blinded observer.
Tube-forming assays were performed as described previously (Ponce 2001). 48-well plates were coated with 200 μl/well of Matrigel (Gho 2001; Kubota 1988), a basement membrane matrix. HUVECs (24,000 cells/well) were plated in RPMI 1640 containing 10% bovine calf serum, defined and supplemented (HyClone Laboratories, Inc., Logan, Utah), along with 100 mg/liter of endothelial cell growth factor (Collaborative Biomedical). C16 or scrambled C16 peptides were added at concentrations ranging from 10-75 μg/ml. Control wells contained medium only. After 16 hours, cells were fixed and stained with Diff-Quick fixative (methanol) and solution II (6.25% (w/v) each of azure A and methylene blue) (Dade A G, Dudingen, Switzerland), and tube formation was scored by a blinded observer. Each peptide was tested at least in triplicate, and the assays were repeated a minimum of three times.
Tube formation assays were repeated using truncated versions of the C16Y peptide to determine the minimal active sequence of the peptide. The carboxyl end of C16Y was not necessary for activity, whereas the amino terminal aspartic acid was required. The minimal active sequence for the C16Y peptide is shown in SEQ ID NO: 2. Each of the peptides containing at least this 8 amino acid sequence (SEQ ID NOs: 1-5) inhibited tube formation.

[1] = system: endothelial cell attachment to laminin-1; assay: Competition assay: block of endothelial cell adhesion to laminin-1; type: cell-based, human
Experimental: FIG. 2: Ability of C16 and scrambled C16 peptides to block laminin-1 endothelial cell adhesion. 96-well plates were coated with laminin-1 (0.5 μg) in the presence of competing C16 or scrambled C16 peptides (0-100 μg/ml). Each wells was treated with 0.1 ml of RPMI containing 35,000 human umbilical vein endothelial cells (HUVECs) for 1.5 hours at 37° C. Unbound cells were decanted, and attached cells were stained with crystal violet and quantified by measuring their absorbance at 600 nm. […] Bars represent ±SD.
Competition experiments were done using 96-well plates coated with laminin-1 (0.5 μg) in the presence of 0-100 μg/ml of competing C16, C16S, C16J, C16L, or C16Y synthetic laminin peptide as specified. Control wells were coated with BSA only. Wells were contacted with 0.1 ml of RPMI 1640 containing 35,000 HUVECs. After a 1.5-hour incubation at 37° C., unbound cells were decanted and attached cells were fixed and stained with 20% methanol/0.2% crystal violet. Dishes were extensively rinsed, and bound dye was solubilized in 2% SDS and quantitated at 600 nm. Assays were done in triplicate at least three times.

[2] = system: human umbilical vein endothelial cells (HUVECs); assay: Endothelial cell adhesion to peptide-coated plates; type: cell-based; settings: 0-5 μg coated, 1.5 hours
Experimental: FIG. 1: Endothelial cell adhesion by C16 and scrambled C16 peptides. 96-well plates were coated with either laminin-1 (0.5 μg), C16 peptide (0-5 μg), or scrambled C16 peptide (0-5 μg). Each well was rinsed with PBS, blocked with BSA, rinsed again with PBS, and then treated with 0.1 ml of RPMI containing 35,000 human umbilical vein endothelial cells (HUVECs) for 1.5 hours at 37° C. Unbound cells were decanted, and attached cells were stained with crystal violet and quantified by measuring their absorbance at 600 nm. Cells adhered to C16, C16S, and C16Y peptides. More cells adhered to C16Y than to any other peptide at all concentrations tested. Bars represent ±SD.
Endothelial cell adhesion assays were performed on 96-well plates coated overnight with either laminin-1 (0.5 μg) or synthetic laminin peptides C16, C16S, C16J, C16L, or C16Y (0-5 μg) as described previously (Malinda 1999). Wells were rinsed with PBS, blocked with 2 mg/ml of BSA, and rinsed again with PBS. Cell adhesion was performed using 0.1 ml of RPMI 1640 containing 35,000 HUVECs. After a 1.5-hour incubation period at 37° C., unbound cells were decanted and attached cells were fixed and stained with 20% methanol/0.2% crystal violet. Dishes were extensively rinsed, and bound dye was solubilized in 2% SDS and quantitated at 600 nm. Assays were done in triplicate at least three times.

[3] = system: bFGF-induced angiogenesis; assay: CAM assay, bFGF-induced angiogenesis; type: in vivo, chick; settings: 50 ng bFGF + 0.05 μg peptide
Experimental: FIG. 5: Inhibition of bFGF-induced angiogenesis by C16Y. 50 ng of angiogenic stimulator (bFGF) and varying concentrations of either C16S or C16Y peptides were applied to 10-day old embryonated eggs in 5 μl of water, and CAMs were analyzed for the presence or absence of angiogenesis.
50 ng of angiogenic stimulator (bFGF) and varying concentrations of either C16S or C16Y peptides were applied to 10-day old embryonated eggs in 5 μl of water, and CAMs were analyzed after 3 days for the presence or absence of angiogenesis.

[4] = system: C16-induced angiogenesis in the chick CAM; assay: CAM assay, C16-induced angiogenesis; type: in vivo
Experimental: FIG. 4: Inhibition of C16-induced angiogenesis by C16Y. 0.5 μg of angiogenic stimulator (C16 peptide) and varying concentrations of either C16S or C16Y peptides were applied to 10-day-old embryonated eggs in 5 μl of water. After 3 days, microphotographs were taken of the eggs to determine angiogenesis levels. Negative control eggs were treated with water only (panel a), while positive control eggs were treated with bFGF only (not shown). As expected, C16 peptide administered alone stimulated angiogenesis (panel d). […] When the amount of inhibitor peptide was lowered to 0.05 μg, C16Y peptide continued to inhibit angiogenesis (panel f), while C16S peptide had no effect (panel c).
The CAM assay was performed using 10-day-old embryonated eggs (CBT, Charlestown, Md.) as described previously (Gho 1999). On embryonal day 3, approximately 4 ml of ovalbumin was removed from each egg. After opening windows on embryonal day 10, the angiogenic stimulus (C16) and test competitor peptides in 5 μl of distilled water were applied to the CAM after drying on 13-mm diameter quartered plastic coverslips (Thermanox; Nalge, NUNC International, Naperville, Ill.). Three days later, the eggs were scored for a positive response and photographed. The positive control was bFGF, and the negative control was the vehicle water. Experiments were repeated twice using a minimum of 11 eggs for each data point.

[5] = Toxicity statement (no method described)
[6] = system: tumor growth and lung colonization; settings: Fridman 1990; cited from earlier work

## AVYIKYR [truncated version of C16Y]
HUVECs
  Activity (tube formation, truncated C16Y peptides): −

## C16J: scrambled peptide of C16 (IKDYLTFARVKF-NH2) [Peptide C16J]
[1]; 0-100 μg/ml competing peptide
  Inhibitory activity on laminin-1 cell adhesion: little activity at all of the doses tested
HUVECs
  Effect on endothelial tube formation: no activity at lower doses and only slight tube disruption at higher concentrations
HUVECs; peptide concentration 10 μg/ml
  Disruption of tube formation: −
HUVECs; peptide concentration 25 μg/ml
  Disruption of tube formation: −
HUVECs; peptide concentration 50 μg/ml
  Disruption of tube formation: −
HUVECs; peptide concentration 75 μg/ml
  Disruption of tube formation: −
[2]
  Endothelial cell adhesion to coated peptide: only weakly bound

## C16L: scrambled peptide of C16 (LTFRAKVYFIKD-NH2) [Peptide C16L]
[1]
  Dose showing some inhibition of attachment to laminin-1: > 75 µg/mL
HUVECs
  Effect on endothelial tube formation: no activity at lower doses and only slight tube disruption at higher concentrations
HUVECs; peptide concentration 10 μg/ml
  Disruption of tube formation: −
HUVECs; peptide concentration 25 μg/ml
  Disruption of tube formation: −
HUVECs; peptide concentration 50 μg/ml
  Disruption of tube formation: +
HUVECs; peptide concentration 75 μg/ml
  Disruption of tube formation: ++
[2]
  Endothelial cell adhesion to coated peptide: did not attach

## C16S: scrambled peptide of C16, created as a negative control, with antagonist activity (KAFDITYVRLKF; Scrambled version of C16 peptide) [Peptide C16S, reference compound]
[3]
  Inhibition of angiogenesis: no ability to inhibit angiogenesis
[4]; 0.5 μg C16 + 0.05 μg inhibitor peptide
  Inhibitory effect on angiogenesis: no longer generated an inhibitory effect
[4]; 0.5 μg C16 + 0.1 μg inhibitor peptide
  Reduction in angiogenesis: 52%
[4]; 0.5 μg C16 + 0.2 μg inhibitor peptide
  Reduction in angiogenesis: 63%
[4]; peptide alone (C16: 0.5 μg)
  Angiogenesis with peptide administered alone: neither C16Y (FIG. 4, panel e) nor C16S (data not shown) administered alone stimulated angiogenesis
HUVECs; 10-75 μg/ml tested
  Dose at which tube formation is disrupted (lowest active): 50 µg/mL
HUVECs; peptide concentration 10 μg/ml
  Disruption of tube formation: −
HUVECs; peptide concentration 25 μg/ml
  Disruption of tube formation: −
HUVECs; peptide concentration 50 μg/ml
  Disruption of tube formation: +++
HUVECs; peptide concentration 75 μg/ml
  Disruption of tube formation: +++

## DFKLF
HUVECs
  Activity (tube formation, truncated C16Y peptides): −

## DFKLFA
HUVECs
  Activity (tube formation, truncated C16Y peptides): −

## DFKLFAV [truncated version of C16Y]
HUVECs
  Activity (tube formation, truncated C16Y peptides): −

## DFKLFAVY (DFKLFAVY-NH2)
HUVECs
  Activity (tube formation, truncated C16Y peptides): ++

## DFKLFAVYI [truncated version of C16Y]
HUVECs
  Activity (tube formation, truncated C16Y peptides): ++

## DFKLFAVYIK [truncated version of C16Y]
HUVECs
  Activity (tube formation, truncated C16Y peptides): ++

## DFKLFAVYIKY [truncated version of C16Y]
HUVECs
  Activity (tube formation, truncated C16Y peptides): ++

## DFKLFAVYIKYR-NH2 [Peptide C16Y, DFKLFAVYIKYR]
[5]
  Toxicity: not toxic

## DRKL
HUVECs
  Activity (tube formation, truncated C16Y peptides): −

## FAVYIKYR [truncated version of C16Y]
HUVECs
  Activity (tube formation, truncated C16Y peptides): −

## FKLFAVYIKYR [truncated version of C16Y]
HUVECs
  Activity (tube formation, truncated C16Y peptides): −

## KLFAVYIKYR [truncated version of C16Y]
HUVECs
  Activity (tube formation, truncated C16Y peptides): −

## LFAVYIKYR [truncated version of C16Y]
HUVECs
  Activity (tube formation, truncated C16Y peptides): −

## SEQ ID NO: 6: peptide having the fibronectin sequence (residues 1023-1033) of c-elegans (DYKYFAVYYR) [reference compound]
HUVECs
  Effect on endothelial tube formation: no ability to block endothelial tube formation

## VYIKYR
HUVECs
  Activity (tube formation, truncated C16Y peptides): −

## YIGSR
[6]
  Activity lower than that of C16Y: ~10 fold

## YIKYR
HUVECs
  Activity (tube formation, truncated C16Y peptides): −
